Measurements as given in patent US8415272B2, “Quinoline derivatives and their use as fungicides” (Syngenta Crop Protection LLC, priority 2008, dated 2013).

Tests used:
[1] = test system: Phytophthora infestans; assay: whole plant or invertebrate; format: in vivo; conditions: in Solanum lycopersicum, foliar, 96 h, read-out: control of fungal infection, Phytophthora infestans
[2] = test system: Erysiphe graminis f.sp. tritici; assay: Leaf disk assay, Erysiphe graminis f.sp. tritici (wheat powdery mildew), preventive; format: in vivo; conditions: Blumeria graminis, foliar, 96 h, wheat leaf segments, assessed four days after inoculation, read-out: control of fungal infection, Erysiphe graminis f.sp. tritici
Experimental: The compounds were tested in a leaf disk assay, with methods described below. The test compounds were dissolved in DMSO and diluted into water to 200 ppm. In the case of the test on Pythium ultimum, they were dissolved in DMSO and diluted into water to 20 […] graminis f.sp. tritici (wheat powdery mildew): Wheat leaf segments were placed on agar in a 24-well plate and sprayed with a solution of the test compound. After allowing to dry completely, for between 12 and 24 hours, the leaf disks were inoculated with a spore suspension of the fungus. After appropriate incubation the activity of a compound was assessed four days after inoculation as preventive fungicidal activity.

[3] = test system: Plasmopara viticola; assay: Leaf disk assay, Plasmopara viticola (downy mildew of grapevine), preventive; format: in vivo; conditions: foliar, 168 h, grapevine leaf disks, assessed seven days after inoculation, read-out: control of fungal infection, Plasmopara viticola
[4] = test system: Septoria tritici; assay: Growth inhibition in nutrient broth, Septoria tritici (leaf blotch), photometric; format: cell-based; conditions: Zymoseptoria tritici, PDB broth, 24 C, 72 hrs, read-out: control of fungal infection, Septoria tritici
[5] = test system: Pythium ultimum; assay: Growth inhibition in potato dextrose broth, Pythium ultimum (damping off), photometric; format: cell-based; conditions: Globisporangium ultimum, 24° C., 48 hours, read-out: control of fungal infection, Pythium ultimum
Experimental: The compounds were tested in a leaf disk assay, with methods described below. The test compounds were dissolved in DMSO and diluted into water to 200 ppm. In the case of the test on Pythium ultimum, they were dissolved in DMSO and diluted into water to 20 ppm. Pythium ultimum (Damping off): Mycelial fragments of the fungus, prepared from a fresh liquid culture, were mixed into potato dextrose broth. A solution of the test compound in dimethyl sulphoxide was diluted with water to 20 ppm then placed into a 96-well microtiter plate and the nutrient broth containing the fungal spores was added. The test plate was incubated at 24° C. and the inhibition of growth was determined photometrically after 48 hours.

[6] = test system: Septoria nodorum; assay: Leaf disk assay, Septoria nodorum (wheat glume blotch), preventive; format: in vivo; conditions: Parastagonospora nodorum, foliar, 96 h, wheat leaf segments, assessed four days after inoculation, read-out: control of fungal infection, Septoria nodorum

| Structure (SMILES) | pest or weed control at 200 ppm [1] | pest or weed control at 200 ppm [2] | pest or weed control at 200 ppm [3] | inhibition of growth at 60 ppm [4] | inhibition of growth at 20 ppm [5] | pest or weed control at 200 ppm [6] |
| --- | --- | --- | --- | --- | --- | --- |
| COCC(C)(C#N)NC(=O)C(Oc1cc2cc(C#C[Si](C)(C)C)cnc2cc1F)SC (centres unmarked) [Example 5] | ≥ 60% | ≥ 60% | ≥ 60% | ≥ 60% |  |  |
| COCC(C)(C#N)NC(=O)C(Oc1cc(C)c2ncc(C#CCO)cc2c1)SC (centres unmarked) [Example 27] |  | ≥ 60% | ≥ 60% |  | ≥ 60% |  |
| COCC#Cc1cnc2c(C)cc(OC(SC)C(=O)NC(C)(C)C)cc2c1 (centres unmarked) [Example 32] |  |  |  | ≥ 60% |  |  |
| COCC#Cc1cnc2c(C)cc(OC(SC)C(=O)NC(C)(C#N)COC)cc2c1 (centres unmarked) [Example 33] | ≥ 60% |  |  | ≥ 60% | ≥ 60% |  |
| CC#CC(C)(C)NC(=O)C(Oc1cc(C)c2ncc(C#CCOC)cc2c1)SC (centres unmarked) [Example 35] |  |  | ≥ 60% | ≥ 60% |  |  |
| C#CC(C)(C)NC(=O)C(Oc1cc(C)c2ncc(C#CCOC)cc2c1)SC (centres unmarked) [Example 36] |  |  |  | ≥ 60% | ≥ 60% |  |
| CC#Cc1cnc2c(C)cc(OC(SC)C(=O)NC(C)(C)C)cc2c1 (centres unmarked) [Example 37] |  |  |  | ≥ 60% |  |  |
| CC#Cc1cnc2c(C)cc(OC(SC)C(=O)NC(C)(C#N)COC)cc2c1 (centres unmarked) [Example 38] |  | ≥ 60% |  | ≥ 60% | ≥ 60% |  |
| CC#Cc1cnc2c(C)cc(OC(SC)C(=O)NC(C)(C)C#CCOC)cc2c1 (centres unmarked) [Example 39] | ≥ 60% |  | ≥ 60% | ≥ 60% |  |  |
| CC#Cc1cnc2c(C)cc(OC(SC)C(=O)NC(C)(C)C#CC)cc2c1 (centres unmarked) [Example 40] |  |  |  | ≥ 60% |  |  |
| C#CC(C)(C)NC(=O)C(Oc1cc(C)c2ncc(C#CC)cc2c1)SC (centres unmarked) [Example 41] |  |  |  | ≥ 60% |  |  |
| COCC#Cc1cnc2ccc(OC(SC)C(=O)NC(C)(C#N)COC)cc2c1 (centres unmarked) [Example 43] | ≥ 60% | ≥ 60% |  |  | ≥ 60% |  |
| C#CC(C)(C)NC(=O)C(Oc1ccc2ncc(C#CCOC)cc2c1)SC (centres unmarked) [Example 46] | ≥ 60% | ≥ 60% |  | ≥ 60% | ≥ 60% |  |
| CC#CC(C)(C)NC(=O)C(Oc1ccc2ncc(C#CCO)cc2c1)SC (centres unmarked) [Example 50] | ≥ 60% |  | ≥ 60% |  | ≥ 60% |  |
| C#CC(C)(C)NC(=O)C(Oc1ccc2ncc(C#CCO)cc2c1)SC (centres unmarked) [Example 51] | ≥ 60% |  | ≥ 60% |  | ≥ 60% |  |
| COCC(C)(C#N)NC(=O)C(Oc1ccc2ncc(C#CCO)cc2c1)SC (centres unmarked) [Example 52] | ≥ 60% |  |  |  | ≥ 60% |  |
| CC#Cc1cnc2ccc(OC(SC)C(=O)NC(C)(C#N)COC)cc2c1 (centres unmarked) [Example 53] | ≥ 60% |  |  | ≥ 60% | ≥ 60% | ≥ 60% |
| COCC#CC(C)(C)NC(=O)C(Oc1cc2cc(C#C[Si](C)(C)C)cnc2cc1F)SC (centres unmarked) [Example 58] |  | ≥ 60% |  | ≥ 60% |  |  |
| CSCC(C)(C#N)NC(=O)C(Oc1ccc2ncc(C#C[Si](C)(C)C)cc2c1)SC (centres unmarked) [Example 59] | ≥ 60% |  |  | ≥ 60% |  |  |
| COCOCC(C)(C)NC(=O)C(Oc1cc(C)c2ncc(C#C[Si](C)(C)C)cc2c1)SC (centres unmarked) [Example 60] |  |  |  | ≥ 60% |  |  |
| COCCC(C)(C)NC(=O)C(Oc1ccc2ncc(C#C[Si](C)(C)C)cc2c1)SC (centres unmarked) [Example 78] | ≥ 60% | ≥ 60% | ≥ 60% | ≥ 60% |  | ≥ 60% |
| COC(Oc1ccc2ncc(C#C[Si](C)(C)C)cc2c1)C(=O)NC(C)(C)C (centres unmarked) [Example 80] | ≥ 60% | ≥ 60% | ≥ 60% | ≥ 60% |  |  |
| COCC(C)(COC)NC(=O)C(Oc1ccc2ncc(C#C[Si](C)(C)C)cc2c1)SC (centres unmarked) [Example 81] | ≥ 60% |  |  | ≥ 60% |  | ≥ 60% |

| Structure (SMILES) | pest or weed control at 200 ppm [1] | pest or weed control at 200 ppm [2] | pest or weed control at 200 ppm [3] | inhibition of growth at 60 ppm [4] | inhibition of growth at 20 ppm [5] | pest or weed control at 200 ppm [6] |
| --- | --- | --- | --- | --- | --- | --- |
| CCOCC(C)(C)NC(=O)C(Oc1cc(C)c2ncc(C#C[Si](C)(C)C)cc2c1)SC (centres unmarked) [Example 89] |  |  |  | ≥ 60% |  |  |
| CCC(C)(C)NC(=O)C(Oc1ccc2ncc(C#C[Si](C)(C)C)cc2c1)SC (centres unmarked) [Example 91] |  | ≥ 60% | ≥ 60% | ≥ 60% |  |  |
| C#Cc1cnc2ccc(OC(SC)C(=O)NC(C)(C#N)CF)cc2c1 (centres unmarked) [Example 92] |  |  |  |  | ≥ 60% |  |
| C#Cc1cnc2ccc(OC(SC)C(=O)NC)cc2c1 (centres unmarked) [Example 96] | ≥ 60% | ≥ 60% | ≥ 60% | ≥ 60% | ≥ 60% | ≥ 60% |
| COCCC#CC(C)(C)NC(=O)C(Oc1ccc2ncc(C#C[Si](C)(C)C)cc2c1)SC (centres unmarked) [Example 100] | ≥ 60% | ≥ 60% | ≥ 60% | ≥ 60% | ≥ 60% |  |
| CSC(Oc1cc2cc(C#C[Si](C)(C)C)cnc2cc1F)C(=O)NC(C)(C)C (centres unmarked) [Example 101] |  |  |  | ≥ 60% |  |  |
| CCC#CC(C)(C)NC(=O)C(Oc1ccc2ncc(C#C[Si](C)(C)C)cc2c1)SC (centres unmarked) [Example 116] | ≥ 60% | ≥ 60% | ≥ 60% | ≥ 60% |  |  |
| CCC#CC(C)(C)NC(=O)C(Oc1cc(Cl)c2ncc(C#C[Si](C)(C)C)cc2c1)SC (centres unmarked) [Example 119] |  |  | ≥ 60% | ≥ 60% |  |  |
| CSC(Oc1cc(Cl)c2ncc(C#C[Si](C)(C)C)cc2c1)C(=O)NC(C)(C)C#CCCCCl (centres unmarked) [Example 120] |  |  |  | ≥ 60% |  |  |
| C#Cc1cnc2c(Cl)cc(OC(SC)C(=O)NC(C)(C#CC)CC)cc2c1 (centres unmarked) [Example 121] | ≥ 60% | ≥ 60% | ≥ 60% | ≥ 60% | ≥ 60% | ≥ 60% |
| C#Cc1cnc2ccc(OC(SC)C(=O)NC3(C=O)CCC3)cc2c1 (centres unmarked) [Example 150] | ≥ 60% | ≥ 60% | ≥ 60% |  |  | ≥ 60% |
| C#CCOCC1(NC(=O)C(Oc2ccc3ncc(C#C)cc3c2)SC)CCC1 (centres unmarked) [Example 152] | ≥ 60% | ≥ 60% | ≥ 60% | ≥ 60% |  | ≥ 60% |
| C#Cc1cnc2ccc(OC(SC)C(=O)N(C)C3(CO)CCC3)cc2c1 (centres unmarked) [Example 154] |  |  |  |  | ≥ 60% |  |
| C#Cc1cnc2ccc(OC(SC)C(=O)NC(C)(C#C)C=O)cc2c1 (centres unmarked) [Example 161] | ≥ 60% |  | ≥ 60% |  | ≥ 60% |  |
| C#Cc1cnc2ccc(OC(SC)C(=O)NC(C)(C#C)CO)cc2c1 (centres unmarked) [Example 173] | ≥ 60% | ≥ 60% | ≥ 60% |  | ≥ 60% | ≥ 60% |
| C#Cc1cnc2ccc(OC(SC)C(=O)NCCO)cc2c1 (centres unmarked) [Example 194] | ≥ 60% |  | ≥ 60% |  | ≥ 60% | ≥ 60% |
| C#Cc1cnc2c(F)c(F)c(OC(SC)C(=O)NC(C)(C#N)COC)cc2c1 (centres unmarked) [Example 216] |  | ≥ 60% | ≥ 60% | ≥ 60% |  |  |
| CSC(Oc1cc2cc(C#C[Si](C)(C)C)cnc2c(F)c1F)C(=O)NC(C)(C)C (centres unmarked) [Example 217] |  |  |  | ≥ 60% |  |  |
| C#Cc1cnc2ccc(OC(OC)C(=O)NC(C)(C)CO)cc2c1 (centres unmarked) [Example 220] | ≥ 60% | ≥ 60% | ≥ 60% | ≥ 60% | ≥ 60% |  |
| C#Cc1cnc2ccc(OC(OC)C(=O)NC(C)(C)C=O)cc2c1 (centres unmarked) [Example 221] | ≥ 60% | ≥ 60% | ≥ 60% | ≥ 60% | ≥ 60% |  |
| C#Cc1cnc2ccc(OC(SC)C(=O)NC3(C)CSC3)cc2c1 (centres unmarked) [Example 224] |  |  |  | ≥ 60% | ≥ 60% |  |
| COCC#CC(C)(C)NC(=O)C(Oc1cc(Cl)c2ncc(C#CCF)cc2c1)SC (centres unmarked) [Example 227] | ≥ 60% | ≥ 60% | ≥ 60% |  |  |  |
